Reference: article PMC6151588, “Four Prenylflavone Derivatives with Antiplasmodial Activities from the Stem of Tephrosia purpurea subsp. leptostachya” (Molecules : A Journal of Synthetic Chemistry and Natural …, 2017)
Entries after “also recorded” stand apart in the source; their conditions may differ. Where two headings read alike, the source gives them in different places.

What was measured:
[1] = tested on: chloroquine-sensitive D6 strain of Plasmodium falciparum; assay: In vitro antiplasmodial activity, non-radioactive (fluorescence-based) assay; format: cell-based; settings: for IC50: Plasmodium falciparum; for Antiplasmodial activity in words: D6 strain of Plasmodium falciparum
Method: The pure compounds were assayed using a non-radioactive assay technique as described by […] al., 2004 [32] with modifications given in the literature.

[2] = MTT cytotoxicity assay, LO2; format: cell-based; settings: human, LO2 cells (immortal hepatic cell line), non-tumoral cell
Method: (§1) A549, HepG2, and non-tumoral cells were all purchased from ATCC. Cells were cultured in RPMI 1640 medium supplemented with 10% fetal bovine serum and antibiotics penicillin (50 U/mL) and streptomycin (50 μg/mL; Invitrogen, Paisley, Scotland, UK). All cell cultures were incubated at 37 °C in a 5% humidified CO2 incubator. All tested compounds were dissolved in DMSO at a final concentration of 50 mmol/L and stored at −20 °C before use. Cytotoxicity was assessed by using the 3-(4,5-dimethylthiazol-2-yl)-2,5-diphenyltetrazolium bromide (MTT) (5.0 mg/mL) assay as previously described. Briefly, 4 × 10^3 cells per well were seeded in 96-well plates before drug treatments. After overnight culture, the cells were then exposed to different concentrations of selected compounds (0.039–100 μmol/L) for 72 h. Cells without drug treatment were used as the control. Subsequently, MTT (10 μL) solution was added to each well and incubated at 37 °C for 4 h followed by the addition of 100 μL solubilization buffer (10% SDS in 0.01 mol/L HCl) and overnight incubation. A570 nm was then determined in each well on the next day. The percentage of cell viability was calculated using the following formula: Cell viability (%) = Atreated/Acontrol × 100. Data were obtained from three independent experiments and the standard error was calculated.

[3] = MTT cytotoxicity assay, HepG2; format: cell-based; settings: human, HepG2 cells (liver cancer cell line)
Method: as §1

[4] = MTT cytotoxicity assay, BEAS; format: cell-based; settings: human, non-tumoral cell
Method: as §1

[5] = MTT cytotoxicity, summary over the four cell-lines; format: cell-based; settings: human, two non-tumoral and two cancerous cell-lines; read-out: Cytotoxicity IC50 against four cell-lines
Method: as §1

[6] = tested on: two non-tumoral and two cancerous cell-lines (LO2, BEAS, A549, HepG2); assay: MTT cytotoxicity, summary over the four cell-lines; format: cell-based
Method: as §1

[7] = MTT cytotoxicity assay, A549; format: cell-based; settings: human, A549 cells (adenocarcinomic alveolar basal epithelial cells), cancer cell
Method: as §1

[8] = D6 strain, in vitro, read-out: Antiplasmodial activity against P. falciparum D6, IC50

Row | Structure (SMILES) | IC50 ([1]; D6, read-out: Antiplasmodial activity against P. falciparum D6, IC50) | IC50 [1, 8] | melting point | IC50 at 72 h [2] | IC50 at 72 h [3] | IC50 at 72 h [4] | Antiplasmodial activity in words [1] | IC50 at 72 h [5] | Selectivity index ([6]; cytotoxicity versus antiplasmodial activity (D6)) | IC50 ([6]; two non-tumoral and two cancerous cell-lines, read-out: Cytotoxicity IC50 against four cell-lines) | IC50 at 72 h [7]
1 | CCN(CC)CCCC(C)Nc1ccnc2cc(Cl)ccc12 (stereo not drawn) [Chloroquine, reference compound] | 0.037 ± 0.003 µM | – | – | – | – | – | – | – | – | – | –
2 | COc1cc(O)c2c(=O)cc(-c3ccccc3)oc2c1/C=C/C(C)(C)O [Compound 1, (E)-5-hydroxy-8-(3-hydroxy-3-methylbut-1-en-1-yl)-7-methoxy-2-phenyl-4H-chromen-4-one] | – | 1.7 ± 0.1 µM | – | 21.7 ± 4.8 µM | > 100 µM | 24.5 ± 2.7 µM | good activity; also recorded: the most active | 21 to 100 µM | > 12 | > 21 µM | 76.1 ± 2.9 µM
3 | COc1cc(O)c2c(=O)cc(-c3ccccc3)oc2c1/C=C/C(C)=O [Compound 2, (E)-5-hydroxy-7-methoxy-8-(3-oxobut-1-en-1-yl)-2-phenyl-4H-chromen-4-one] | – | – | – | > 100 µM | > 100 µM | > 100 µM | – | – | – | – | > 100 µM

More lines, main results first:

Row | IC50 ([1]; D6, read-out: Antiplasmodial activity against P. falciparum D6, IC50) | IC50 [1, 8] | melting point | Structure (SMILES) | IC50 at 72 h [2] | IC50 at 72 h [3] | IC50 at 72 h [4] | Antiplasmodial activity in words [1] | IC50 at 72 h [5] | Selectivity index ([6]; cytotoxicity versus antiplasmodial activity (D6)) | IC50 ([6]; two non-tumoral and two cancerous cell-lines, read-out: Cytotoxicity IC50 against four cell-lines) | IC50 at 72 h [7]
4 | – | 14.8 ± 3.2 µM | 210 to 214 °C | COc1cc(OC(C)=O)c(C2COC(C)(C)C2=O)c2oc(-c3ccccc3)cc(=O)c12 (stereo not drawn) [Compound 4, 8-(5,5-dimethyl-4-oxotetrahydrofuran-3-yl)-5-methoxy-4-oxo-2-phenyl-4H-chromen-7-yl acetate] | > 100 µM | > 100 µM | > 100 µM | low antiplasmodial activities | – | – | – | > 100 µM
5 | – | 27.1 ± 3.2 µM | – | COc1cc(OC)c2c(=O)cc(-c3ccccc3)oc2c1C1=COC(C)(C)C1=O [Compound 9, tachrosin] | > 100 µM | > 100 µM | > 100 µM | low antiplasmodial activities | – | – | – | > 100 µM
